What was measured:
Canis familiaris = test: Inhibition of histamine-stimulated gastric acid secretion in dog after intravenous administration; assay type: functional; conditions: Canis lupus familiaris, Stomach
[1] = biological target: Histamine H2 receptor (Cavia porcellus) (UniProt P47747); test: Histamine H2 receptor affinity was assessed in vitro by antagonism of dimaprit-stimulated chronotropic response in guinea pig right atrium at 0.1 ug/mL; assay type: functional, tissue-based; conditions: Cardiac atrium
Histamine H2 receptor (Cavia porcellus), sequence (P47747 whole entry): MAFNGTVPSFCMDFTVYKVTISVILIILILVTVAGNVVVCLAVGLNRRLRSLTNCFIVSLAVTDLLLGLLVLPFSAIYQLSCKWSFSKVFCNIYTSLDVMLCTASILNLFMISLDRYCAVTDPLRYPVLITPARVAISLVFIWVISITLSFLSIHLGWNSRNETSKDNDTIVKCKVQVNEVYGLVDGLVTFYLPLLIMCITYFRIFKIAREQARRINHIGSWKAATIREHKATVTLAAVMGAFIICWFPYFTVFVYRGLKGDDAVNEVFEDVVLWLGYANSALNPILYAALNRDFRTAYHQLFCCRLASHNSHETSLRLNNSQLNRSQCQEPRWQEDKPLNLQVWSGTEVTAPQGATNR

[2] = biological target: Histamine H2 receptor (Cavia porcellus) (UniProt P47747); test: Binding constant towards histamine H2 receptor

Compound: CN(C)Cc1cccc(CSCCNc2n[s+]([O-])nc2N)c1 (stereo not drawn)
- ED50 (Canis familiaris): 0.013 mg/kg
- Relative potency [1]: 0.51

Compound: CN(C)Cc1cccc(CSCCNc2n[s+]([O-])nc2N)n1 (stereo not drawn)
- ED50 (Canis familiaris): 0.17 mg/kg
- Relative potency [1]: 0.84

Compound: CN(C)Cc1ccc(CSCCNc2n[s+]([O-])nc2N)[nH]1 (stereo not drawn)
- -Log KB [2]: 6.85
- ED50 (Canis familiaris): 0.17 mg/kg
- Relative potency [1]: 0.31

Compound: CN(C)Cc1ccc(CSCCNc2n[s+]([O-])nc2N)s1 (stereo not drawn)
- ED50 (Canis familiaris): 0.008 mg/kg
